Laboratory results as given in US20250009931A1 (GEL4MED, INC., priority 2021, published 2025).
Square brackets hold non-standard residues; d marks the D form. Ends that are not written are not given here.

Tests used:
[1] = cited from earlier work
[2] = Net charge and isoelectric point of peptide; format: physicochemical; details: pH 7
From the text: The peptide may be purified. For example, the peptide may be lyophilized. […] Other peptides are within the scope of the disclosure.
Exemplary peptides having a charge of +5 to +9 include […](d)[…], […](d)[…], and […](d)[…]. In other embodiments, the purified peptide may be substantially neutral. […] Net charge may be selected by peptide design. Design of electrostatic charge in the peptide hydrogel may allow control of charge interaction with cell membrane and proteins.

Row | Molecule | pKa [1] | net charge [2]
1 | O=C(O)C(F)(F)F [trifluoroacetic acid] | about 0 | –
2 | VEVSVSVEVPPTEVSVEVEV (VEVSVSVEV[dP]PTEVSVEVEV) | – | net negative charge
